Data on three compounds can be found in patent US20240092758A1, “IMIDAZOLO INDAZOLE COMPOUNDS AS JAK INHIBITORS” (Theravance Biopharma R&D IP, LLC, priority 2021, published 2024).

Each structure is given as a SMILES string.

In one assay the target is TYK2 (Homo sapiens (Human), UniProt P29597). Nature of the assay: Biochemical JAK kinase assay (LanthaScreen), Tyk2. The settings on record: read-out: Tyk2 pKi (converted). In short, it runs like this: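 LanthaScreen format: phospho-STAT1 (pTyr701) detected with 2 nM Tb antibody after 10 mM EDTA quench. Kinase step used Km-level ATP and 200 nM STAT1 peptide, 1 h at ambient after 1 h pre-incubation. Inhibition fitted to IC50, reported as pKi.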
TYK2, sequence (P29597 whole entry): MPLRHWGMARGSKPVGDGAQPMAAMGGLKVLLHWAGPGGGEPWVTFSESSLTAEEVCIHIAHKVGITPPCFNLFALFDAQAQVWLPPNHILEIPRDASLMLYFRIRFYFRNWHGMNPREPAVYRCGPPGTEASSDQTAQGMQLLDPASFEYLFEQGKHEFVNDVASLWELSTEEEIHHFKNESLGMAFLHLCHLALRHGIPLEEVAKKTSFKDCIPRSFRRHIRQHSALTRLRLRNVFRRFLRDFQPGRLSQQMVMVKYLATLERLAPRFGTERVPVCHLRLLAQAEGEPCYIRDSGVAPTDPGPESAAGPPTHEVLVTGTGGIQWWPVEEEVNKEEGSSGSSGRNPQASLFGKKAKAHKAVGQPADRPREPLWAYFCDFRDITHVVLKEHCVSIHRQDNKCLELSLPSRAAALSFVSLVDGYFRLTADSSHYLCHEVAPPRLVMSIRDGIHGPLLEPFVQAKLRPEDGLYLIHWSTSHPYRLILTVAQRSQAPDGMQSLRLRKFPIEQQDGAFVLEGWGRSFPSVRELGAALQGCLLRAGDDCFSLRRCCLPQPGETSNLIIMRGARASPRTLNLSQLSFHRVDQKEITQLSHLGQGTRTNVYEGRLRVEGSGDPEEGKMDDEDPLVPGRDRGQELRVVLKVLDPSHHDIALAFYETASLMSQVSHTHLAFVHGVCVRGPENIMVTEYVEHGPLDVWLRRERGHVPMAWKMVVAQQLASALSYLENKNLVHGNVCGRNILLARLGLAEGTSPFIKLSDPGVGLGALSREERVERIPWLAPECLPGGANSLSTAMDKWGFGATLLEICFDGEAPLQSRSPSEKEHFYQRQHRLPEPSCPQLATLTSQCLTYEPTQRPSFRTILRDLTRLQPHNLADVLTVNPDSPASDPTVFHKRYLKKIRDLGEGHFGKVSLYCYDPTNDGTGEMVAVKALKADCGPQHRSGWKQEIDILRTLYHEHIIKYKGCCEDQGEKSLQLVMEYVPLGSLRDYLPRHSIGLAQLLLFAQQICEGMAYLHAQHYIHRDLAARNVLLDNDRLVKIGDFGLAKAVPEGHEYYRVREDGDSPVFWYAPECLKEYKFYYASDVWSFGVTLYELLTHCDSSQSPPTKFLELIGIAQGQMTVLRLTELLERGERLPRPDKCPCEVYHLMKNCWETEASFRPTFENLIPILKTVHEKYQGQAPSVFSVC

In assay [1] the test system is IL-13 induced STAT6 phosphorylation in BEAS-2B human lung epithelial cells. Kind of assay: Cellular JAKI potency assay (BEAS-2B). The format is cell-based. Conditions: Homo sapiens, BEAS-2B, BEAS-2B cells, read-out: BEAS2B pIC50 (converted). In short, it runs like this: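 BEAS-2B cells were preincubated with compound (0.1% DMSO) in HBSS/HEPES/BSA for 1 h at 37 °C, then stimulated with IL-13 (80 ng/mL before addition) for 30 min. After lysis, pSTAT6 (Tyr641) was quantified by AlphaLISA SureFire; IC50 from a 4-parameter fit of percent inhibition, reported as pIC50.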

Take `CCc1cc(O)ccc1-c1ccc2c(-c3nc(C4=CCNC4)c[nH]3)n[nH]c2c1F` [Compound 1, 4-(3-(4-(2,5-dihydro-1H-pyrrol-3-yl)-1H-imidazol-2-yl)-7-fluoro-1H-indazol-6-yl)-3-ethylphenol]: the Ki at TYK2 is 1 to 10 nM. Further, the IC50 in assay [1] is 3.16 to 10 nM.

Take `CCc1cc(O)ccc1-c1ccc2c(-c3nc(C4=CCNCC4)c[nH]3)n[nH]c2c1F` [Compound 2, 3-ethyl-4-(7-fluoro-3-(4-(1,2,3,6-tetrahydropyridin-4-yl)-1H-imidazol-2-yl)-1H-indazol-6-yl)phenol]: the Ki at TYK2 is 1 to 10 nM. Further, the IC50 in assay [1] is 3.16 to 10 nM.

With `CCc1cc(O)ccc1-c1ccc2c(-c3nc(C4=CCNCC4)c[nH]3)n[nH]c2c1` [Compound 3, 3-ethyl-4-(3-(4-(1,2,3,6-tetrahydropyridin-4-yl)-1H-imidazol-2-yl)-1H-indazol-6-yl)phenol], the Ki on TYK2 was 0.1 to 1 nM. For the same compound, in assay [1], the IC50 is 3.16 to 10 nM.
